Earlier results in patent US8841476B2, “Preparation of crystalline ezatiostat hydrochloride ansolvate form D” (Telik, Inc., priority 2010, dated 2014).
Where two headings read alike, the source gives them in different places.

Experiments:
[1] = ezatiostat hydrochloride in a liposomal injectable formulation, MDS trial, Raza et al. 2009
[2] = tested on: HL-60 promyelocytic leukemia cells; settings: in vitro
[3] = in vivo
[4] = tested on: hematopoietic progenitor cells in normal human peripheral blood
[5] = in vitro

For CCOC(=O)[C@@H](N)CCC(=O)N[C@@H](CSCc1ccccc1)C(=O)N[C@@H](C(=O)OCC)c1ccccc1 [Ezatiostat], the “white blood cell production” value (animals in which white blood cells were depleted by treatment with cisplatin or fluorouracil) is given as “increase white blood cell production”, the “white blood cell production” value (normal animals) is given as “increase white blood cell production” and the hematologic improvement [1] is given as “multi-lineage hematologic improvement”. For the same compound, the tolerability [1] was “well tolerated”, the “differentiation of HL-60 promyelocytic leukemia cells” value [2] was “induce the differentiation” and the “potentiation of the activity of cytotoxic agents” value [3] was “potentiate the activity of cytotoxic agents”. For the same compound, the “colony formation of hematopoietic progenitor cells” value [4] was “stimulate colony formation of all three lineages” and the “potentiation of the activity of cytotoxic agents” value [5] was “potentiate the activity of cytotoxic agents”.
